From the supplement of paper PMC10307832

Columns and labels:
Assay in all cases: relative viability (nuclei count vs DMSO), 5 days (fraction); higher = more cells survive
[1] = compound: CN(C)C[C@@H]1CCn2cc(c3ccccc32)C2=C(C(=O)NC2=O)c2cn(c3ccccc23)CCO1 [Ruboxistaurin] + COc1cccc2cc(-c3nc([C@H]4CC[C@H](C(=O)O)CC4)n4ncnc(N)c34)[nH]c12 [OSI-027] (partner 0.5 µM)
Method in brief: (§1)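 Lung cancer cell lines in 1536-well plates got either a single drug or a fixed anchor-drug dose together with five library-drug doses (not always all listed) in √10 steps, by pin tool, on the day after seeding. Nuclei were counted after 5 days, and relative viability is the treated-to-vehicle ratio of nuclei counts. Values are medians of duplicate plates.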

[2] = compound: CN(C)C[C@@H]1CCn2cc(c3ccccc32)C2=C(C(=O)NC2=O)c2cn(c3ccccc23)CCO1 [Ruboxistaurin] + Cc1nc(NC(=O)N2CCC[C@H]2C(N)=O)sc1-c1ccnc(C(C)(C)C(F)(F)F)c1 [Alpelisib] (partner 2 µM)
Method in brief: as §1

[3] = compound: CN(C)C[C@@H]1CCn2cc(c3ccccc32)C2=C(C(=O)NC2=O)c2cn(c3ccccc23)CCO1 [Ruboxistaurin] + CCNC(=O)c1noc(-c2cc(C(C)C)c(O)cc2O)c1-c1ccc(CN2CCOCC2)cc1 [Luminespib] (partner 0.01 µM)
Method in brief: as §1

[4] = compound: CN(C)C[C@@H]1CCn2cc(c3ccccc32)C2=C(C(=O)NC2=O)c2cn(c3ccccc23)CCO1 [Ruboxistaurin] + COc1cc2c(Oc3ccc(NC(=O)C4(C(=O)Nc5ccc(F)cc5)CC4)cc3F)ccnc2cc1OCCCN1CCOCC1 [Foretinib] (partner 0.25 µM)
Method in brief: as §1

[5] = compound: CN(C)C[C@@H]1CCn2cc(c3ccccc32)C2=C(C(=O)NC2=O)c2cn(c3ccccc23)CCO1 [Ruboxistaurin] + Nc1ncn([C@H]2C[C@H](O)[C@@H](CO)O2)c(=O)n1 [Decitabine] (partner 2 µM)
Method in brief: as §1

Row | Cell Line | relative viability ([1]; first compound 0.08 µM) | relative viability ([1]; first compound 0.8 µM) | relative viability ([1]; first compound 2.53 µM) | relative viability ([1]; first compound 8 µM) | relative viability ([2]; first compound 0.08 µM) | relative viability ([2]; first compound 0.8 µM) | relative viability ([2]; first compound 2.53 µM) | relative viability ([2]; first compound 8 µM) | relative viability ([3]; first compound 0.08 µM) | relative viability ([3]; first compound 0.8 µM) | relative viability ([3]; first compound 2.53 µM) | relative viability ([3]; first compound 8 µM) | relative viability ([4]; first compound 0.08 µM) | relative viability ([4]; first compound 0.8 µM) | relative viability ([4]; first compound 2.53 µM) | relative viability ([4]; first compound 8 µM) | relative viability ([5]; first compound 0.08 µM) | relative viability ([5]; first compound 0.8 µM) | relative viability ([5]; first compound 2.53 µM) | relative viability ([5]; first compound 8 µM)
1 | NCI-H1437 | 0.985 | 0.793 | 0.835 | 0.804 | 1.12 | 0.868 | 1.03 | 1.02 | 1.17 | 1.1 | 1.17 | 1.22 | 1.29 | 1.21 | 1.37 | 1.38 | 0.571 | 0.621 | 0.622 | 0.702
2 | HOP-62 | 0.884 | 0.783 | 0.826 | 0.753 | 0.932 | 1.08 | 0.992 | 1 | 0.964 | 0.892 | 0.989 | 1.01 | 1.13 | 1.07 | 1.13 | 1.22 | 0.21 | 0.242 | 0.251 | 0.268
3 | EPLC-272H | 0.308 | 0.266 | 0.298 | 0.249 | 1.1 | 0.807 | 0.901 | 0.846 | 0.368 | 0.224 | 0.293 | 0.668 | 0.853 | 0.548 | 0.703 | 0.472 | 0.473 | 0.289 | 0.354 | 0.341
4 | COR-L 105 | 0.881 | 0.565 | 0.62 | 0.443 | 1.17 | 1.09 | 0.911 | 0.706 | 1.06 | 0.784 | 0.681 | 0.941 | 1.37 | 0.826 | 1.1 | 0.87 | 0.618 | 0.595 | 0.681 | 0.611
5 | NCI-H2009 | 0.735 | 0.536 | 0.608 | 0.548 | 1.21 | 1.14 | 1.18 | 1.14 | 1.14 | 1.01 | 0.984 | 1.15 | 1.29 | 1.22 | 1.28 | 1.24 | 0.39 | 0.371 | 0.411 | 0.406
6 | NCI-H23 | 0.601 | 0.448 | 0.593 | 0.457 | 0.831 | 0.617 | 0.71 | 0.686 | 0.23 | 0.213 | 0.225 | 0.2 | 1 | 0.897 | 1.1 | 0.936 | 0.279 | 0.259 | 0.364 | 0.283
7 | NCI-H727 | 0.764 | 0.416 | 0.523 | 0.448 | 0.543 | 0.485 | 0.527 | 0.368 | 0.345 | – | 0.355 | 0.323 | 1.15 | 0.718 | 0.84 | 0.645 | 0.862 | 0.839 | 0.976 | 0.639
8 | NCI-H1355 | 0.444 | 0.322 | 0.382 | 0.297 | 0.868 | 0.68 | 0.827 | 0.667 | 0.734 | 0.592 | 0.788 | 0.534 | 1.02 | 0.862 | 1.02 | 0.82 | 0.37 | 0.356 | 0.347 | 0.411
